The values below are quoted from earlier work in patent US11638760B2, “Pyrrolobenzodiazepine antibody conjugates” (priority 2017, dated 2023).

The conditions of the series: Phase I clinical evaluation.

Turning to `C=C1C[C@H]2C=Nc3cc(OCCCOc4cc5c(cc4OC)C(=O)N4CC(=C)C[C@H]4C=N5)c(OC)cc3C(=O)N2C1` [SJG-136], the maximum tolerated dose is on record as 45 μg/m.
